In US12612360B2 (Sanofi, priority 2020, dated 2026):

Target: T1, ERα (Homo sapiens, UniProt P03372)
T1 construct: host or cells: MCF7
T1 sequence (P03372 1-595): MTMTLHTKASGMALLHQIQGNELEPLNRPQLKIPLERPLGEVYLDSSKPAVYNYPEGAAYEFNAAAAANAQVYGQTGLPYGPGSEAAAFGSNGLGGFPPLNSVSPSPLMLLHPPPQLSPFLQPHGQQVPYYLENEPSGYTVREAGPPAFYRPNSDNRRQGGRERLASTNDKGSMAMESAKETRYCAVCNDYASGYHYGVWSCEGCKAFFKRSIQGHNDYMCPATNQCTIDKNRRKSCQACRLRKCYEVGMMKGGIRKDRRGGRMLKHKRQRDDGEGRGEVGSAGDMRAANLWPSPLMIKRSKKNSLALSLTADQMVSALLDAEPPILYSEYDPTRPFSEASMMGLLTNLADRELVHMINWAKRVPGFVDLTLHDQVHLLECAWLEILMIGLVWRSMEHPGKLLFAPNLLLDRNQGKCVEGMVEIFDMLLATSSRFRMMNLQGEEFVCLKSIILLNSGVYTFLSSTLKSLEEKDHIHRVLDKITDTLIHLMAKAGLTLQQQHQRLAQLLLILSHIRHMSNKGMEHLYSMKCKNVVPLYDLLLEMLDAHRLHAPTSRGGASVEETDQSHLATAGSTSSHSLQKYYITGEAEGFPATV
Experiment: Estrogen receptor degradation activity: breast cancer cell ERα in cell western assay (MCF7 cells)
Type: cell-based
Settings: for % Degradation At 0.3 μM: 4 hours, relative to fulvestrant 0.1 μM positive control; for DC50: 4 hours post compound addition, concentration which degrades 50% of the estrogen receptor, read-out: Degradation IC50
Protocol: Test: Estrogen Receptor Degradation Activity Said test involves measuring the in vitro degradation activity of the compounds of the Table 1a. The measurements of the degradation activities were made using a breast cancer cell ERα in cell western assay as described hereunder. MCF7 cells (ATCC) were seeded in 384 wells microplate (collagen coated) at a concentration of 10000 cells/30 μL per well in red phenol free MEM alpha medium (invitrogen) containing 5% charcoal dextran striped FBS. The following day, 9 points serial 1:5 dilution of each compound was added to the cells in 2.5 μL at final concentrations ranging from […] (in table 2), or 0.1 μM for fulvestrant (using as positive control). At 4 hours post compound addition the cells were fixed by adding 25 μL of formalin (final concentration 5% formalin containing 0.1% triton) for 10 minutes at room temperature and then washed twice with PBS. Then, 50 μL of LI-COR blocking buffer containing 0.1% Triton was added to plate for 30 minutes at room temperature. LI-COR blocking buffer was removed and cells were incubated overnight at cold room with 50 μL anti-ER rabbit monoclonal antibody (Thermo scientific MA1-39540) diluted at 1:1000 in LI-COR blocking buffer containing 0.1% tween-20. Wells which were treated with blocking buffer but no antibody were used as background control. Wells were washed twice with PBS (0.1% tween-20) and incubated at 37° C. for 60 minutes in LI-COR (0.1% tween-20) containing goat anti-rabbit antibody Alexa 488 (1:1000) and Syto-64 a DNA dye (2 μM final concentration). Cells were then washed 3 times in PBS and scanned in ACUMEN explorer (TTP-Labtech). Integrated intensities in the green fluorescence and red fluorescence were measured to determine the levels of ERα and DNA respectively. The degradation activity with respect to estrogen receptors in this test is given by the concentration which degrades 50% of the estrogen receptor (or IC50) in nM. […] DMSO−fulvestrant)).

In the case of `Cc1cc(C2CC2)ccc1C1=C(c2ccc(C=C3CN(CCCF)C3)cc2)c2ccc(C(=O)O)cc2CCC1` [Example 39, 8-(4-cyclopropyl-2-methylphenyl)-9-(4-((1-(3-fluoropropyl)azetidin-3-ylidene)methyl)phenyl)-6,7-dihydro-5H-benzo[7]annulene-3-carboxylic acid], the “% Degradation At 0.3 μM” value is reported as 87% and the DC50 is reported as 0.2 nM.
With `Cc1cc(F)ccc1C1=C(c2ccc(C=C3CN(CCCF)C3)c(C#N)c2)c2ccc(C(=O)O)cc2CCC1` [Example 46, 9-(3-cyano-4-((1-(3-fluoropropyl)azetidin-3-ylidene)methyl)phenyl)-8-(4-fluoro-2-methylphenyl)-6,7-dihydro-5H-benzo[7]annulene-3-carboxylic acid] the “% Degradation At 0.3 μM” value was 94% and the DC50 was 6 nM.
With `O=C(O)c1ccc2c(c1)CCCC(c1cccc3c1CCC3(F)F)=C2c1ccc(C=C2CN(CCC(F)F)C2)cc1` [Example 164, 8-(1,1-difluoro-2,3-dihydro-1H-inden-4-yl)-9-(4-((1-(3,3-difluoropropyl)azetidin-3-ylidene)methyl)phenyl)-6,7-dihydro-5H-benzo[7]annulene-3-carboxylic acid] the “% Degradation At 0.3 μM” value was 93% and the DC50 was 1.4 nM.
`Cc1cccc(C2=C(c3ccc(C=C4CN(CCC(F)(F)F)C4)cc3)c3ccc(C(=O)O)cc3CCC2)c1C(F)(F)F` [Example 110, 8-(3-methyl-2-(trifluoromethyl)phenyl)-9-(4-((1-(3,3,3-trifluoropropyl)azetidin-3-ylidene)methyl)phenyl)-6,7-dihydro-5H-benzo[7]annulene-3-carboxylic acid] was tested, and the “% Degradation At 0.3 μM” value was 93% and the DC50 was 2.9 nM.
`O=C(O)c1ccc2c(c1)CCCC(c1ccc(F)c3c1CCC3)=C2c1ccc(C=C2CN(CCCF)C2)cc1` [Example 12, 8-(7-fluoro-2,3-dihydro-1H-inden-4-yl)-9-(4-((1-(3-fluoropropyl)azetidin-3-ylidene)methyl)phenyl)-6,7-dihydro-5H-benzo[7]annulene-3-carboxylic acid] was tested, and the “% Degradation At 0.3 μM” value was 93% and the DC50 was 0.4 nM.
With `Cc1cc(F)ccc1C1=C(c2cc(F)c(C=C3CN(CCCF)C3)c(F)c2)c2ccc(C(=O)O)cc2CCC1` [Example 36, 9-(3,5-difluoro-4-((1-(3-fluoropropyl)azetidin-3-ylidene)methyl)phenyl)-8-(4-fluoro-2-methylphenyl)-6,7-dihydro-5H-benzo[7]annulene-3-carboxylic acid] the “% Degradation At 0.3 μM” value was 89% and the DC50 was 0.4 nM.
For `Cc1c(Cl)cccc1C1=C(c2ccc(C=C3CN(CCC(F)F)C3)cc2)c2ccc(C(=O)O)cc2CCC1` [Example 126, 8-(3-chloro-2-methylphenyl)-9-(4-((1-(3,3-difluoropropyl)azetidin-3-ylidene)methyl)phenyl)-6,7-dihydro-5H-benzo[7]annulene-3-carboxylic acid], the “% Degradation At 0.3 μM” value was 93% and the DC50 was 0.5 nM.
`Cc1cc(F)c(C2=C(c3ccc(C=C4CN(CCCF)C4)cc3)c3ccc(C(=O)O)cc3CCC2)c(F)c1` [Example 51, 8-(2,6-difluoro-4-methylphenyl)-9-(4-((1-(3-fluoropropyl)azetidin-3-ylidene)methyl)phenyl)-6,7-dihydro-5H-benzo[7]annulene-3-carboxylic acid] was tested, and the “% Degradation At 0.3 μM” value was 95% and the DC50 was 0.4 nM.
With `O=C(O)c1ccc2c(c1)CCCC(c1cccc3c1CCC3(F)F)=C2c1ccc(C=C2CN(CCCF)C2)cc1` [Example 9, 8-(1,1-difluoro-2,3-dihydro-1H-inden-4-yl)-9-(4-((1-(3-fluoropropyl)azetidin-3-ylidene)methyl)phenyl)-6,7-dihydro-5H-benzo[7]annulene-3-carboxylic acid] the “% Degradation At 0.3 μM” value was 90% and the DC50 was 0.6 nM.
For `Cc1cc(F)ccc1C1=C(c2ccc(C=C3CN(CCCF)C3)c(F)c2C)c2ccc(C(=O)O)cc2CCC1` [Example 30, 8-(4-fluoro-2-methylphenyl)-9-(3-fluoro-4-((1-(3-fluoropropyl)azetidin-3-ylidene)methyl)-2-methylphenyl)-6,7-dihydro-5H-benzo[7]annulene-3-carboxylic acid], the “% Degradation At 0.3 μM” value was 91% and the DC50 was 1.8 nM.
For `Cc1cc(C2=C(c3ccc(Cl)cc3Cl)CCCc3cc(C(=O)O)ccc32)ccc1C=C1CN(CCCF)C1` [Example 64, 8-(2,4-dichlorophenyl)-9-(4-((1-(3-fluoropropyl)azetidin-3-ylidene)methyl)-3-methylphenyl)-6,7-dihydro-5H-benzo[7]annulene-3-carboxylic acid], the “% Degradation At 0.3 μM” value was 93% and the DC50 was 0.3 nM.
With `O=C(O)c1ccc2c(c1)CCCC(c1cc(Cl)cc(C(F)(F)F)c1)=C2c1ccc(C=C2CN(CCCF)C2)cc1` [Example 143, 8-(3-chloro-5-(trifluoromethyl)phenyl)-9-(4-((1-(3-fluoropropyl)azetidin-3-ylidene)methyl)phenyl)-6,7-dihydro-5H-benzo[7]annulene-3-carboxylic acid] the “% Degradation At 0.3 μM” value was 81% and the DC50 was 3.7 nM.
`Cc1c(Cl)cccc1C1=C(c2ccc(C=C3CN(CCCF)C3)cc2)c2ccc(C(=O)O)cc2CCC1` [Example 72, 8-(3-chloro-2-methylphenyl)-9-(4-((1-(3-fluoropropyl)azetidin-3-ylidene)methyl)phenyl)-6,7-dihydro-5H-benzo[7]annulene-3-carboxylic acid] was tested, and the “% Degradation At 0.3 μM” value was 97% and the DC50 was 0.3 nM.
`O=C(O)c1ccc2c(c1)CCCC(c1ccc(F)cc1F)=C2c1ccc(C=C2CN(CCCF)C2)c(F)c1` [Example 53, 8-(2,4-difluorophenyl)-9-(3-fluoro-4-((1-(3-fluoropropyl)azetidin-3-ylidene)methyl)phenyl)-6,7-dihydro-5H-benzo[7]annulene-3-carboxylic acid] was tested, and the “% Degradation At 0.3 μM” value was 94% and the DC50 was 0.3 nM.
For `O=C(O)c1ccc2c(c1)CCCC(c1ccc3c(c1F)CCC3)=C2c1ccc(C=C2CN(CCC(F)F)C2)cc1` [Example 161, 9-(4-((1-(3,3-difluoropropyl)azetidin-3-ylidene)methyl)phenyl)-8-(4-fluoro-2,3-dihydro-1H-inden-5-yl)-6,7-dihydro-5H-benzo[7]annulene-3-carboxylic acid], the “% Degradation At 0.3 μM” value was 92% and the DC50 was 1.2 nM.
With `O=C(O)c1ccc2c(c1)CCCC(c1cc(C(F)(F)F)ccc1Cl)=C2c1ccc(C=C2CN(CCCF)C2)cc1` [Example 140, 8-(2-chloro-5-(trifluoromethyl)phenyl)-9-(4-((1-(3-fluoropropyl)azetidin-3-ylidene)methyl)phenyl)-6,7-dihydro-5H-benzo[7]annulene-3-carboxylic acid] the “% Degradation At 0.3 μM” value was 92% and the DC50 was 0.5 nM.
`O=C(O)c1ccc2c(c1)CCCC(c1ccc(F)c(C(F)(F)F)c1F)=C2c1ccc(C=C2CN(CCCF)C2)cc1` [Example 124, 8-(2,4-difluoro-3-(trifluoromethyl)phenyl)-9-(4-((1-(3-fluoropropyl)azetidin-3-ylidene)methyl)phenyl)-6,7-dihydro-5H-benzo[7]annulene-3-carboxylic acid] was tested, and the “% Degradation At 0.3 μM” value was 93% and the DC50 was 1.2 nM.
`CC(C)CC1=C(c2ccc(C=C3CN(CCCF)C3)cc2)c2ccc(C(=O)O)cc2CCC1` [Example 100, 9-(4-((1-(3-Fluoropropyl)azetidin-3-ylidene)methyl)phenyl)-8-isobutyl-6,7-dihydro-5H-benzo[7]annulene-3-carboxylic acid] was tested, and the “% Degradation At 0.3 μM” value was 94% and the DC50 was 0.3 nM.
In the case of `Cc1ccc(C2=C(c3ccc(C=C4CN(CCCF)C4)cc3)c3ccc(C(=O)O)cc3CCC2)c(C(F)(F)F)c1` [Example 70, 9-(4-((1-(3-fluoropropyl)azetidin-3-ylidene)methyl)phenyl)-8-(4-methyl-2-(trifluoromethyl)phenyl)-6,7-dihydro-5H-benzo[7]annulene-3-carboxylic acid], the “% Degradation At 0.3 μM” value is reported as 101% and the DC50 is reported as 0.2 nM.
